± gives the expanded uncertainty stated by the source. Values belong to the compound of their own block, whether it stands above or below them.
Experiments:
[1] = 332.7 K; 101 kPa; Liquid
[2] = xn = mol fraction of the nth substance listed; details: 332.7 K, 101 kPa, Liquid

mass density [1]: 778.14 ± 0.37 kg/m3
Structure (SMILES): CC(C)CCO [3-methylbutan-1-ol]

mass density ([2]; x2 = 0): 778.14 ± 0.37 kg/m3
mass density ([2]; x2 = 0.0501): 780.94 ± 0.36 kg/m3
mass density ([2]; x2 = 0.1087): 784.25 ± 0.36 kg/m3
mass density ([2]; x2 = 0.1714): 788.1 ± 0.36 kg/m3
mass density ([2]; x2 = 0.2296): 791.81 ± 0.35 kg/m3
mass density ([2]; x2 = 0.29): 795.6 ± 0.35 kg/m3
mass density ([2]; x2 = 0.3561): 799.89 ± 0.34 kg/m3
mass density ([2]; x2 = 0.4088): 803.56 ± 0.34 kg/m3
mass density ([2]; x2 = 0.4659): 807.59 ± 0.34 kg/m3
mass density ([2]; x2 = 0.5339): 812.5 ± 0.33 kg/m3
mass density ([2]; x2 = 0.5891): 816.6 ± 0.33 kg/m3
mass density ([2]; x2 = 0.6597): 821.96 ± 0.32 kg/m3
mass density ([2]; x2 = 0.7088): 825.91 ± 0.31 kg/m3
mass density ([2]; x2 = 0.7693): 830.72 ± 0.31 kg/m3
mass density ([2]; x2 = 0.8286): 835.79 ± 0.3 kg/m3
mass density ([2]; x2 = 0.8882): 840.96 ± 0.3 kg/m3
mass density ([2]; x2 = 0.9488): 846.43 ± 0.29 kg/m3
Structure (SMILES): CC(C)CCO [3-methylbutan-1-ol] + CCOC(C)=O

mass density [1]: 851.36 ± 0.28 kg/m3
Structure (SMILES): CCOC(C)=O [ethyl acetate]

mass density ([2]; x1 = 1): 851.36 ± 0.28 kg/m3
Structure (SMILES): CCOC(C)=O [ethyl acetate] + CC(C)CCO

Reference: the NIST ThermoML archive (doi:10.1016/j.fluid.2008.03.002)
